Columns and labels:
[1] = tested on: ERβ-expressing BLA-to-NAc neurons; assay: cFos immunofluorescence of ERβ projections to the NAc after E2 and SSDS; format: in vivo, mouse
[2] = tested on: TRPM-2, ODC, AR and ERα expression; conditions: in vivo; cited from earlier work
C3 expression = conditions: rat, in vivo; cited from earlier work
male mice = assay: Acquisition, extinction and reinstatement of cued (Pavlovian) fear; format: in vivo, mouse; conditions: non-stressed orchiectomized males, 10 mm silastic implant
Procedure: Determine the role of E2 in the normal acquisition, extinction, and reinstatement of cued (Pavlovian) fear responses in males. The effect of orchiectomy on the acquisition, extinction, and reinstatement of fear in non-stressed male animals is determined. It has previously been reported that orchiectomy enhances tone conditioned freezing in male mice, which was prevented with systemic testosterone administration. It has also been reported that orchiectomy delayed extinction of fear responses in male rats. The role of E2 is known in mediating fear responses, extinction, and related cognitive functions in female rodents. Fear conditioning takes place in Coulbourn shuttle boxes. The floor of the chambers consists of parallel rods connected to a Coulbourn shock source that delivers foot shocks. A speaker mounted on the top of the chamber delivers an acoustic conditioned stimulus (pure tone). […] Mice are placed in the chamber for a 3 min habituation period, wherein baseline freezing to the novel context will be assessed. […] One week later, mice are assessed for reinstatement of the conditioned fear. […] Time spent freezing across CS presentations during the extinction procedure (Days 2 and 3) is assessed with Coulbourn automated FreezeFrame software. […] If differences between the groups are detected, then whether these effects are due to altered shock sensitivity, are assessed.

gonadectomized mice = assay: Inescapable foot shock stress followed by female urine preference; format: in vivo, mouse; conditions: 10 mm silastic implant; for stress-induced female urine preference deficits: orchiectomized males, inescapable foot shock
Procedure: Determine effects of E2 on gonadectomy-induced susceptibility to inescapable traumatic shock stress in males and females. Most of these experiments assess the effects of social defeat stress. In this experiment the effects of an alternative type of stress-inescapable foot shocks are assessed—to determine whether the observed biological effects of E2 are stress specific. […] The effects of this stress on maladaptive behaviors and their possible reversal by testosterone and E2 are assessed. The following groups of mice are used for this experiment: (1) Sham Surgery+empty silastic tube; (2) ORX+empty silastic tube; (3) Sham Surgery+testosterone (10 mm) containing silastic tube; (4) ORX+testosterone (10 mm) containing silastic tube; (5) Sham Surgery+E2 (10 mm) containing silastic tube; (6) ORX+E2 (10 mm) containing silastic tube. Mice are exposed to inescapable foot shock (0.3 mA shocks; 180 shocks at 15 sec intervals) in a two-chambered shuttle box with a permanent divider in place. Controls are placed in the same chambers but will not receive shocks. Twenty-four hours later mice are subsequently tested for social interaction and female urine preference. As a comparison to male results, a similar experiment is conducted in females with the following groups: (1) Sham Surgery+empty silastic tube; (2) OVX+empty silastic tube; (3) Sham Surgery+E2 (10 mm) containing silastic tube; (4) OVX+E2 (10 mm) containing silastic tube. It is predicted that the effects of orchiectomy in males are reproduced to enhance stress-induced decreases in female urine preference deficits, which will be prevented by both testosterone and E2.

Compound | activation of ERβ-expressing BLA-to-NAc neurons (c-Fos) ([1]; orchiectomized mice, acute treatment prior to SSDS) | activation of the other strong ERβ-projections to the NAc (c-Fos) ([1]; prefrontal, cingulate and insular cortex projections) | expression of TRPM-2, ODC, AR and ERα in the prostate gland [2] | uterus C3 expression (C3 expression) | orchiectomy-enhanced fear conditioning and reduced rate of extinction (male mice) | stress-induced female urine preference deficits (gonadectomized mice) | effects of ovariectomy plus foot shock stress (gonadectomized mice; ovariectomized females)
C[C@]12CC[C@@H]3c4ccc(O)cc4CC[C@H]3[C@@H]1CC[C@@H]2O [Example E2, 17β-Estradiol] | activated at a significantly higher degree | activation of any of the other strong ERβ-projections to the NAc in response to E2 was observed | decreases in the expression | increases C3 expression | reverse this effect | prevented | prevented by the replacement of E2
C[C@]12CC[C@H]3[C@@H](CCC4=CC(=O)CC[C@@]43C)[C@@H]1CC[C@@H]2O [Testosterone, testosterone] |  |  |  |  | prevented by testosterone | prevented | 
